≈ marks a conversion by molar mass, not a printed value.
Assays:
[1] = tested on: vancomycin-resistant Enterococcus faecalis (VanA VRE, BM4166); test: In vitro antimicrobial assay (MIC), VanA E. faecalis; format: cell-based; settings: for MIC: Enterococcus faecalis, VRE, read-out: Antimicrobial Activity, MIC, VanA E. faecalis; for antibiotic susceptibility profile of the strain: VanA E. faecalis BM 4166
Text: (§1) One day before a study was run, fresh cultures of vancomycin-sensitive Staphylococcus aureus (VSSA strain ATCC 25923), methicillin and oxacillin-resistant Staphylococcus aureus subsp. aureus (MRSA strain ATCC 43300), vancomycin-resistant Enterococcus faecalis (VanA VRE, BM4166), Enterococcus faecium (VanA VRE, ATCC BAA-2317), vancomycin-resistant Enterococcus faecalis (VanB VRE, strain ATCC 51299), Escherichia coli (ATCC 25922), Acinetobacter baumannii (ATCC BAA-1710), Pseudomonas aeruginosa (ATCC 15442), Klebsiella pneumoniae (ATCC 700603) were inoculated and grown in an orbital shaker at 37° C. in 100% Mueller-Hinton broth (VSSA, MRSA and VanB VRE), 100% brain-heart infusion broth (VanA VRE, A. baumannii and K. pneumoniae) or 100% Luria broth (E. coli and P. aeruginosa). After 24 hours, the bacterial stock solutions were serially diluted with the culture medium (10% Mueller-Hinton broth for VSSA, MRSA and VanB VRE or 10% brain-heart infusion broth for VanA VRE A. baumannii and K. pneumoniae or 10% Luria Broth for E. coli and P. aeruginosa) to achieve a turbidity equivalent to a 1:100 dilution of a 0.5 M McFarland solution. This diluted bacterial stock solution was then inoculated in a 96-well V-shaped glass coated microtiter plate, supplemented with serial diluted aliquots of the antibiotic solution in DMSO (4 μL), to achieve a total assay volume of 0.1 mL. The plate was then incubated at 37° C. for 18 hours, after which minimal inhibitory concentrations (MICs) were determined by monitoring the cell growth (observed as a pellet) in the wells.
(§2) The lowest concentration of antibiotic (in μg/mL) capable of eliminating cell growth in the wells is the reported MIC value. The reported MIC values for the vancomycin analogues were determined against vancomycin as a standard in the first well.*
(§3) [*Clinical and Laboratory Standards Institute. Methods for Dilution Antimicrobial Susceptibility Tests for Bacteria That Grow Aerobically; Approved Standard, 7th ed.; CLSI document M07-A8; Clinical and Laboratory Standards Institute: Wayne, Pa., 2009.]

[2] = tested on: Enterococcus faecium (VanA VRE, ATCC BAA-2317); test: In vitro antimicrobial assay (MIC), VanA E. faecium; format: cell-based; settings: for MIC: Enterococcus faecium, read-out: Antimicrobial Activity, MIC, VanA E. faecium; for antibiotic susceptibility profile of the strain: VanA E. faecium ATCC BAA-2317
Text: as §1, §2, §3

[3] = tested on: VanA VRE (E. faecalis BM 4166 and E. faecium ATCC BAA-2317); test: Cell wall permeability assay (propidium iodide uptake); format: cell-based, Enterococcus faecalis; Enterococcus faecium
Text: The effect of the compounds on cell membrane permeability was examined by measuring cytoplasmic membrane uptake of the fluorescent probe propidium iodide in the same VanA vancomycin-resistant E. faecalis (BM 4166) and E. faecium (ATCC BAA-2317) strains. This fluorescent probe only enters cells with permeabilized cell membranes and is detected by the emission of fluorescence upon intracellular nucleic acid binding [Boulos et al., J Microbiol Methods 1999, 37(1):77-86].
Fresh, mid-log phase VanA VRE in pH 7.2 buffer at 25° C. were preincubated with propidium iodide (10 μM) for 5 minutes before the test compounds were added, monitoring the fluorescence emission at 617 nm (excitation at 535 nm) over time, both pre (5 minutes) and post (15 minutes) compound addition. Rapid and sustained increases in fluorescence intensity are observed immediately upon addition of test compounds that induce bacterial cell membrane permeability.
One day before a study was run, cultures of vancomycin-resistant Enterococcus faecalis (VanA VRE, BM4166) and Enterococcus faecium (VanA VRE, ATCC BAA-2317), were inoculated and grown in an orbital shaker at 37° C. in 100% brain-heart infusion broth for 12 hours. The above bacterial solution was subjected to a subculture to obtain fresh mid-log phase bacterial cells (total volume of bacterial suspension=7 mL, incubation time=6 hours, OD600=0.6). After the cultured bacteria were harvested (3000 rpm, 4° C., 20 minutes), the white bacterial precipitate was washed and resuspended in 5 mM glucose and 5 mM HEPES buffer (1:1, 500 μL, pH=7.2).
This bacterial suspension (130 μL) was charged into a 96-well black plate with a clear bottom (Corning 3650). The propidium iodide dye (10 μL, 150 μM DMSO solution) was added to the above suspension and the fluorescence was monitored at 25° C. for 5 minutes at 30 second intervals using a microplate reader (Molecular Devices®, Max Gemini EX) at an excitation wavelength of 535 nm and an emission wavelength of 617 nm. The test compound (150 μM, 10 μL) was added to the cell suspension and the fluorescence was monitored at 25° C. for an additional 15 minutes.

[4] = tested on: vancomycin-resistant Enterococcus faecalis (VanA VRE, BM4166); settings: BM 4166; previously reported data; cited from earlier work
[5] = tested on: Enterococcus faecium (VanA VRE, ATCC BAA-2317); settings: previously reported data; cited from earlier work

Molecule	MIC [1] [µg/mL]	MIC [2] [µg/mL]	antibiotic susceptibility profile of the strain [2]	other results
CN[C@H](CC(C)C)C(=O)N[C@H]1C(=O)N[C@@H](CC(N)=O)C(=O)N[C@H]2C(=O)N[C@@H]3C(=O)N[C@H](C(=O)N[C@H](C(=O)NCCC[N+](C)(C)C)c4cc(O)cc(O)c4-c4cc3ccc4O)[C@H](O)c3ccc(c(Cl)c3)Oc3cc2cc(c3OC2OC(CO)C(O)[C@H](O)[C@@H]2O[C@H]2CC(C)(N)[C@H](O)[C@H](C)O2)Oc2ccc(cc2Cl)[C@H]1O (stereo partly drawn) [Compound 10]	63	126		induced cell membrane permeability (propidium uptake) ([3]; 10 μM compound): did not do so; induced cell membrane permeability (propidium uptake) ([3]; 100 μM compound): exhibited this induced permeability
CCCCCCCCCCCCCC[N+](C)(C)CCCNC(=O)[C@H]1NC(=O)[C@H]2NC(=O)[C@@H](NC(=O)[C@@H]3NC(=O)[C@H](CC(N)=O)NC(=O)[C@H](NC(=O)[C@@H](CC(C)C)NC)[C@H](O)c4ccc(c(Cl)c4)Oc4cc3cc(c4OC3OC(CO)C(O)[C@H](O)[C@@H]3O[C@H]3CC(C)(NCc4ccc(-c5ccc(Cl)cc5)cc4)[C@H](O)[C@H](C)O3)Oc3ccc(cc3Cl)[C@H]2O)c2ccc(O)c(c2)-c2c(O)cc(O)cc21 (stereo partly drawn) [Compound 17]	2	2		
O=C(N[C@H](CO)[C@H](O)c1ccc([N+](=O)[O-])cc1)C(Cl)Cl [chloramphenicol]				antibiotic susceptibility profile of the strain [1]: resistant
CN[C@H](CC(C)C)C(=O)N[C@H]1C(=O)N[C@@H](CC(N)=O)C(=O)N[C@H]2C(=O)N[C@@H]3C(=O)N[C@H](C(=O)N[C@H](C(=O)NCCC[N+]4(C)CCCC4)c4cc(O)cc(O)c4-c4cc3ccc4O)[C@H](O)c3ccc(c(Cl)c3)Oc3cc2cc(c3OC2OC(CO)C(O)[C@H](O)[C@@H]2O[C@H]2CC(C)(N)[C@H](O)[C@H](C)O2)Oc2ccc(cc2Cl)[C@H]1O (stereo partly drawn) [Compound 11]	4	2		induced cell membrane permeability (propidium uptake) ([3]; 10 μM compound): produced pronounced, rapid cell membrane permeability
CN[C@H](CC(C)C)C(=O)N[C@H]1C(=O)N[C@@H](CC(N)=O)C(=O)N[C@H]2C(=O)N[C@@H]3C(=O)N[C@H](C(=O)N[C@H](C(=O)NCCC[N+]4(C)CCCC4)c4cc(O)cc(O)c4-c4cc3ccc4O)[C@H](O)c3ccc(c(Cl)c3)Oc3cc2cc(c3OC2OC(CO)C(O)[C@H](O)[C@@H]2O[C@H]2CC(C)(NCc3ccc(-c4ccc(Cl)cc4)cc3)[C@H](O)[C@H](C)O2)Oc2ccc(cc2Cl)[C@H]1O (stereo partly drawn) [Compound 16]	2	2		
CC1(C)S[C@@H]2[C@H](NC(=O)[C@H](N)c3ccccc3)C(=O)N2[C@H]1C(=O)O [ampicillin]			resistant	
CCN(CC)CCS(=O)(=O)[C@@H]1CCN2C(=O)c3coc(n3)CC(=O)C[C@H](O)/C=C(C)/C=C/CNC(=O)/C=C/[C@@H](C)[C@@H](C(C)C)OC(=O)[C@@H]12 [dalfopristine]			sensitive	
CN[C@H](CC(C)C)C(=O)N[C@H]1C(=O)N[C@@H](CC(N)=O)C(=O)N[C@H]2C(=O)N[C@@H]3C(=O)N[C@H](C(=O)N[C@H](C(=O)NCCCN(C)C)c4cc(O)cc(O)c4-c4cc3ccc4O)[C@H](O)c3ccc(c(Cl)c3)Oc3cc2cc(c3OC2OC(CO)C(O)[C@H](O)[C@@H]2O[C@H]2CC(C)(N)[C@H](O)[C@H](C)O2)Oc2ccc(cc2Cl)[C@H]1O (stereo partly drawn) [Compound 9]	500 (≈ 326 µM)	500 (≈ 326 µM)		induced cell membrane permeability (propidium uptake) ([3]; 10 μM compound): did not do so
CC1(C)S[C@@H]2[C@H](NC(=O)Cc3ccccc3)C(=O)N2[C@H]1C(=O)O [benzylpenicillin]			resistant	
CN[C@H](CC(C)C)C(=O)N[C@H]1C(=O)N[C@@H](CC(N)=O)C(=O)N[C@H]2C(=O)N[C@@H]3C(=O)N[C@H](C(=O)N[C@H](C(=O)NCCCN(C)C)c4cc(O)cc(O)c4-c4cc3ccc4O)[C@H](O)c3ccc(c(Cl)c3)Oc3cc2cc(c3OC2OC(CO)C(O)[C@H](O)[C@@H]2O[C@H]2CC(C)(NCc3ccc(-c4ccc(Cl)cc4)cc3)[C@H](O)[C@H](C)O2)Oc2ccc(cc2Cl)[C@H]1O (stereo partly drawn) [Compound 14]	5 (≈ 2.88 µM)	5 (≈ 2.88 µM)		
gentamicin				antibiotic susceptibility profile of the strain [1]: resistant
teicoplanin			resistant	antibiotic susceptibility profile of the strain [1]: resistant
CNC(CC(C)C)C(=O)NC1C(=O)NC(CC(N)=O)C(=O)NC2C(=N)NC3C(=O)NC(C(=O)NC(C(=O)O)c4cc(O)cc(O)c4-c4cc3ccc4O)C(O)c3ccc(c(Cl)c3)Oc3cc2cc(c3OC2OC(CO)C(O)C(O)C2OC2CC(C)(N)C(O)C(C)O2)Oc2ccc(cc2Cl)[C@@H]1O (stereo partly drawn) [Compound 3]				Antimicrobial Activity, MIC, VanA E. faecalis [4]: 0.5 µg/mL; Antimicrobial Activity, MIC, VanA E. faecium [5]: 0.5 µg/mL
CC[C@H]1OC(=O)[C@H](C)[C@@H](O[C@H]2C[C@@](C)(OC)[C@@H](O)[C@H](C)O2)[C@H](C)[C@@H](O[C@@H]2O[C@H](C)C[C@H](N(C)C)[C@H]2O)[C@](C)(O)C[C@@H](C)C(=O)[C@H](C)[C@@H](O)[C@]1(C)O [erythromycin]			resistant	antibiotic susceptibility profile of the strain [1]: resistant

Source: US10934326B2, “Peripheral modifications on pocket-redesigned vancomycin analogs synergistically improve antimicrobial potency and durability” (priority 2016, dated 2021)
